Measurements from publication PMC7717986, “Echinacoside Suppresses Amyloidogenesis and Modulates F-actin Remodeling by Targeting the ER Stress Sensor PERK in a Mouse Model of Alzheimer’s Disease” (Frontiers in Cell and Developmental Biology, 2020).

Key:
human PERK (hPERK) = target: T1, human PERK (hPERK) (Homo sapiens, UniProt Q9NZJ5); test: microscale thermophoresis (MST) with labeled PERK protein; format: binding
T1 construct: gene EIF2AK3
T1 sequence (Q9NZJ5 30-1116): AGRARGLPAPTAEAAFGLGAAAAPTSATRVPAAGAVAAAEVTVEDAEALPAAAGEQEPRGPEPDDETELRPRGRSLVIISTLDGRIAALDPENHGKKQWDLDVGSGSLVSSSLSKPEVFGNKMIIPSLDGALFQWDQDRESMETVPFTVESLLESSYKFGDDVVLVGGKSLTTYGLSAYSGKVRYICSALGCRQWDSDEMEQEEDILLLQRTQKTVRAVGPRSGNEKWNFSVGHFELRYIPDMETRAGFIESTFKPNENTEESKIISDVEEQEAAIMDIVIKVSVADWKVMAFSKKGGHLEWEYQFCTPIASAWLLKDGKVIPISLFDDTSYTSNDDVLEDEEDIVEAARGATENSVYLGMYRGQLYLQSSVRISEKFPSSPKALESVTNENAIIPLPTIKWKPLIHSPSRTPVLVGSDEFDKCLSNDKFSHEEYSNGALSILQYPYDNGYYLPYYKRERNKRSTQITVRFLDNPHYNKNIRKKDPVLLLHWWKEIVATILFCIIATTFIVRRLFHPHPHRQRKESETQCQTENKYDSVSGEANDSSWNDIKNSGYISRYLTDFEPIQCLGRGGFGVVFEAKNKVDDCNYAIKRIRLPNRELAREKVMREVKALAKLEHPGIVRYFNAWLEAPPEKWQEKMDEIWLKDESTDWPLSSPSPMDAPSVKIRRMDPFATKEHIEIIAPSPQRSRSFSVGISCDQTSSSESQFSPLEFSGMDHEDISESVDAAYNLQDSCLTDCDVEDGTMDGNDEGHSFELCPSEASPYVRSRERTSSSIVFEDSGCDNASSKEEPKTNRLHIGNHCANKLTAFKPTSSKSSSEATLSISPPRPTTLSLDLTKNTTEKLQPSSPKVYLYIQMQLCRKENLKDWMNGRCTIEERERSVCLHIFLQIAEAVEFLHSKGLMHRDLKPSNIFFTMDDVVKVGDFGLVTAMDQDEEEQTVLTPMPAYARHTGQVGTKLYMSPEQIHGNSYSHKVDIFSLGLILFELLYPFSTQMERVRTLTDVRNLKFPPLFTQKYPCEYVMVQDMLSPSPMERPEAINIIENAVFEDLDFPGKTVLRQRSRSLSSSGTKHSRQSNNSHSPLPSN

mouse PERK (mPERK) = target: T2, mouse PERK (mPERK) (Mus musculus, UniProt Q9Z2B5); test: as above; format: binding
T2 construct: gene Eif2ak3
T2 sequence (Q9Z2B5 29-1114): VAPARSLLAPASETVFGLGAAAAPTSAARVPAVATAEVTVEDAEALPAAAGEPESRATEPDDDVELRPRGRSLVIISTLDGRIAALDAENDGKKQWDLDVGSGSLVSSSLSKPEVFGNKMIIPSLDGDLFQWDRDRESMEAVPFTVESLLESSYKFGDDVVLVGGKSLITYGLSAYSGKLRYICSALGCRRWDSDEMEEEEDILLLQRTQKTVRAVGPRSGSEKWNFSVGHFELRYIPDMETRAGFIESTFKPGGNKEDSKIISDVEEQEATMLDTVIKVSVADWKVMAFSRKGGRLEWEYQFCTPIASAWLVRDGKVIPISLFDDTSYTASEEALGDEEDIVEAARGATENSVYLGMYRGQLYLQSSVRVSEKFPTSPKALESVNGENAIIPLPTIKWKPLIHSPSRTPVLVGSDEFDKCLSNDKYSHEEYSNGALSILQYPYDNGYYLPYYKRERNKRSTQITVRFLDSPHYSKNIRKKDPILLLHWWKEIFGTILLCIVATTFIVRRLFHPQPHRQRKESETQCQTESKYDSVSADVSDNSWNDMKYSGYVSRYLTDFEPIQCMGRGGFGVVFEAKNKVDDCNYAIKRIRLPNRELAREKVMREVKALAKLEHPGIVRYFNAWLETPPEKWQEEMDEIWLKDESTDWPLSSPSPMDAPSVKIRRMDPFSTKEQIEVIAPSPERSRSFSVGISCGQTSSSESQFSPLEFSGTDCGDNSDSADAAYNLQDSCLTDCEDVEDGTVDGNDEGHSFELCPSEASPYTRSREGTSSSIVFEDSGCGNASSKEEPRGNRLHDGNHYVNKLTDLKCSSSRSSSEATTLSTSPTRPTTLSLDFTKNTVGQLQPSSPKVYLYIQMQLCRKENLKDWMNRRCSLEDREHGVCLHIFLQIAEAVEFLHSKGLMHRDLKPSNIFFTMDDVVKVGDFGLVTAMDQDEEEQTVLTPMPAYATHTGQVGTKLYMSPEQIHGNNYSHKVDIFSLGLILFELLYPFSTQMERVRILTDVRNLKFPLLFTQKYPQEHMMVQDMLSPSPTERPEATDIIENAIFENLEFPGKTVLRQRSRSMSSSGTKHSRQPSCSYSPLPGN

Q: Which results are given for C[C@@H]1O[C@@H](O[C@@H]2[C@@H](O)[C@H](OCCc3ccc(O)c(O)c3)O[C@H](CO[C@@H]3O[C@H](CO)[C@@H](O)[C@H](O)[C@H]3O)[C@H]2OC(=O)/C=C/c2ccc(O)c(O)c2)[C@H](O)[C@H](O)[C@H]1O [ECH, Echinacoside]?
A: Kd (human PERK (hPERK)): 635 ± 74 nM; Kd (mouse PERK (mPERK)): 851 ± 81 nM
